For this assay, the target named is T1, human ornithine aminotransferase (hOAT) (Homo sapiens, UniProt P04181).
T1 sequence (P04181 26-439): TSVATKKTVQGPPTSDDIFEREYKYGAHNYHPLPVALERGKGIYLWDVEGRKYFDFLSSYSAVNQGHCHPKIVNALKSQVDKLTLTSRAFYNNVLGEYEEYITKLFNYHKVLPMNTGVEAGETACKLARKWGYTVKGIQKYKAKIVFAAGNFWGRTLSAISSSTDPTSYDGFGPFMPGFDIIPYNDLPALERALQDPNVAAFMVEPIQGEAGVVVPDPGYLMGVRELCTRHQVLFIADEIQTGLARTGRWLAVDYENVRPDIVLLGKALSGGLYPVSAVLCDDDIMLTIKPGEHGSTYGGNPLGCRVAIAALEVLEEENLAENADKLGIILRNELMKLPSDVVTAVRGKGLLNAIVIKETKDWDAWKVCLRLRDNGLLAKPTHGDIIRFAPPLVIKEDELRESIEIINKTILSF
As to the kind of experiment: […] Å crystal structure of the inactivated enzyme. Conditions: read-out: Ki. In kind it is biochemical.

Structures can show the parent of a compound that is named as a salt.

Consider `N[C@H]1C[C@@H](C(=O)O)CC1=C(C(F)(F)F)C(F)(F)F` [compound 1, (1S,3S)-3-amino-4-(perfluoropropan-2-ylidene)cyclopentane-1-carboxylic acid hydrochloride], for which the KI (inactivation) is 54 µM.
